Values quoted from earlier work, collected in article PMC3185201 (Molecular pharmaceutics, 2011).

System: NEP 24.11
Settings: prior study

Protection from the degradation by NEP 24.11: outstanding protection
SMILES: CC[C@H](C)[C@H](NC(=O)[C@H](Cc1ccccc1)NC(=O)[C@H](CCC(=O)O)NC(=O)[C@H](CCCCN)NC(=O)[C@H](C)NC(=O)[C@H](C)NC(=O)[C@H](CCC(N)=O)NC(=O)[C@@H]1CCCCNC(=O)CC[C@H](NC(=O)[C@H](CO)NC(=O)[C@@H](NC(=O)[C@H](CC(=O)O)NC(=O)[C@H](CO)NC(=O)[C@@H](NC(=O)[C@H](Cc2ccccc2)NC(=O)[C@@H](NC(=O)CNC(=O)[C@H](CCC(=O)O)NC(=O)C(C)(C)NC(=O)[C@@H](N)Cc2c[nH]cn2)[C@@H](C)O)[C@@H](C)O)C(C)C)C(=O)N[C@@H](Cc2ccc(O)cc2)C(=O)N[C@@H](CC(C)C)C(=O)N[C@@H](CCC(=O)O)C(=O)N1)C(=O)N[C@H]1CCC(=O)NCCCC[C@@H](C(=O)NCC(=O)N[C@@H](CCCNC(=N)N)C(=O)NCCCCCC(=O)N[C@@H](CS)C(N)=O)NC(=O)[C@H](C(C)C)NC(=O)[C@H](CC(C)C)NC(=O)[C@H](Cc2c[nH]c3ccccc23)NC1=O [EM3106B]
